The term GI50 denotes the concentration at which growth is held to half of that of the control.

The values below come from article PMC7546004, “Targeting BCL10 by small peptides for the treatment of B cell lymphoma” (Theranostics, 2020).

Read-outs that look alike come from different tables or passages of the source. Square brackets hold non-standard residues; d marks the D form. Ends that are not written are not given here. Peptide text beside a SMILES is read from it. * marks the point of attachment. Cbz = O=C(OCc1ccccc1)*

The target in series [1] is T1, BCL10 (Homo sapiens, UniProt O95999).
T1 sequence (O95999 1-233): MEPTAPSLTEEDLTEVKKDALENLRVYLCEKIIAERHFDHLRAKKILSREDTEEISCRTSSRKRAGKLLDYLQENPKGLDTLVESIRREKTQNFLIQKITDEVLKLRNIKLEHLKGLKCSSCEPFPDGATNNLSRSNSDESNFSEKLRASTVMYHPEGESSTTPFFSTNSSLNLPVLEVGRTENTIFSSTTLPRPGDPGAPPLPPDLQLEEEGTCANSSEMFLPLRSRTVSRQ
Put plainly: Western blot of BCL10 protein level in DLBCL cells. It counts as cell-based. The conditions noted are these: HBL1 cells, BCL10-P4 1 h pretreatment, then MG132 or chloroquine 3 h; Figure 4H. More on the design: Western blot of BCL10 in cells treated with different concentrations of BCL10-P4 for 8 h; endogenous in cells; host or cells: HBL1, TMD8, OCI-LY1 DLBCL cells. How it is done:
Cell pellets were lysed in RIPA buffer (50 mM Tris at pH 8.0, 150 mM NaCl, 1% NP-40, 1 mM EDTA, and 1X protease inhibitor cocktail) or RIPA buffer containing 0.1% SDS. Equal amounts of protein extracts were separated by SDS-PAGE and blotted onto polyvinylidene difluoride (PVDF) membranes.
A general note: A western blot detects proteins with antibodies after separation by electrophoresis.

The subject of another series is Jurkat cells. The experiment in a line: Growth inhibition. It counts as cell-based. The conditions noted are these: Figure S3E; exposure time not given. The source says: (§1) GraphPad Prism software was used to determine GI50 values.
In the next series the test system is 293T. The experiment in a line: Growth inhibition, noncancerous cell line. It counts as cell-based.
Source text: as §1

The subject of another series is BPH-1. The experiment in a line: Growth inhibition, noncancerous cell line. It counts as cell-based.
Source text: as §1

The subject of series [2] is HBL1, TMD8 and OCI-LY1 cells. Put plainly: Intracellular pharmacokinetics of biotinylated BCL10-P4 (streptavidin blot). Type of series: in vitro ADME. How it is done:
(§2) hActin- F: 5’-[…]-3’
(§3) hIL6-R: 5’- […]-3 ’.
(§4) hBcl10-F: 5’-[…] TAGAAA-3’
(§5) hBcl10-R: 5’-[…] T-3’
(§6) 1x105 HBL1, TMD8, OCl-LY 1 , OCl-LY 1 , U2932, MD901 or RCK8 cells were seeded in 12-well plate
(§7) wa sh e d and lysed with RIPA buffer.
(§8) immunoblotting with Streptavidin (Cell signaling, cat. #3999S). […]

Series [3] concerns ABC-DLBCL cells (HBL1 and TMD8 cell lines). Type of series: cell-based. The settings on record: 72 h.
Source text: as §1

A further series relates to DLBCL cell lines. Type of series: cell-based.
Source text: as §1

In series [4] the test system is HBL1 cells. Type of series: cell-based.
Source text: as §1

Series [5] deals with HBL1 cells. The experiment in a line: Intracellular pharmacokinetics, BCL10-P4 versus DRI-BCL10-P4. The conditions noted are these: Figure 6B and S7A; western blot. How it is done: MBP-Bcl10 was expressed and purified as previously described {Qiao, 2013 #85}. Purified
mM NaCl, 1% NP-40) at 4 °C for 1 hour, followed by addition of 5% BSA blocked S t re ptavidin (SAV)
Immunoprecipitant were washed 5 times with IP buffer and separated by SDS-PA G E . […]
as §2, §3, §4, §5, §6, §7, §8

A further series relates to TMD8 cells. It counts as cell-based, human.
Source text: as §1

Series [6] deals with T1, BCL10. The experiment in a line: In vitro BCL10 filamentation assay (negative-stain electron microscopy). Type of series: biochemical. The settings on record: MBP-BCL10 and peptide premixed at 1:1 or 1:2 molar ratio, RT 30 min, then TEV cleavage. How it is done:
MBP-BCL10 was expressed and purified as previously described. MBP-BCL10 and BCL10 peptide inhibitors were premixed at a 1:1 or 1:2 molar ratio at RT for 30 minutes before adding TEV to cleave the MBP tag. 5 μL of reaction mixture was applied to copper grids (Beijing Zhongjingkeyi Technology Co., Cat. No. BZ10024a), where it remained for 1 minute and was then negatively stained with 3% uranyl acetate for 1 minute, air-dried and imaged with a JEM-1230 TEM at 100 keV.

For series [7], the system named is NF-κB target genes in TMD8 cells. Put plainly: RNA-seq gene set enrichment analysis of NF-κB target genes. Type of series: cell-based. The conditions noted are these: BCL10-P4 5 μM, ibrutinib 10 nM, 8 h and 24 h, duplicate. How it is done: 1:100 dilution for 15 min at room temperature in the dark. Signals from FL1 and FL3 channels were collected by MACSQuant analyzer and data were analyzed using FloJo (Ashland, OR). Early apoptosis was defined as AnnexinV+/PI-, and late apoptosis as AnnexinV+/PI+. Percentage of apoptotic cells were the sum of early and late apoptotic cells.
For cell cycle analysis, cells were washed twice with cold PBS and fixed in 70% ethanol overnight at 4°C. Fixed cells were collected at 1800 rpm for 10 min and stained with PBS containing PI and DNase-free RNase A (Sigma-Aldrich) for 1h at room temperature in the dark. DNA content was measured by BD LSRII flow cytometer and data were analyzed in FloJo. […]
All extracts were treated with DNase in column during RNA purification. RNA integrity was determined on an Agilent 2100 Bioanalyzer (Agilent Technologies, SantaClara, CA). […]
RNAseq raw data are analyzed with the Salmon software 30 using default settings. Log2Fold changes and P values of differentiation gene expression between different samples are calculated using the Bioconductor - DESeq2 R package 31 using default settings. […]
Six-week-old female NOD prkdc-/- IL-2Rg-/- (NCG) mice purchased from GemPharmatech Co., Lt d we re raised in a SPF- level Laboratory Animal Room. […] Tumor volumes were monitored by a digital caliper every other day and calculated using the formula: (smallest diameter2 x largest diameter)/2. […]

A further series concerns KARPAS422. Type of series: cell-based. The settings on record: 24 h.
Source text: as §1

A further series deals with OCI-LY3. Type of series: cell-based. The conditions noted are these: 24 h.
Source text: as §1

Another series concerns RCK8. It counts as cell-based. The conditions noted are these: 24 h.
Source text: as §1

For the next series, the system named is SUDHL4. Type of series: cell-based. The conditions noted are these: 24 h.
Source text: as §1

The test system of the next series is SUDHL6. Type of series: cell-based, human. The settings on record: 24 h.
Source text: as §1

Setting [8] is: noncancerous cell line, Figure S2C.
The mark [9] stands for this setting: 5 μM biotinylated BCL10-P4, cell lysate blotted with streptavidin.

For `CC(C)C[C@@H](C=O)NC(=O)[C@H](CC(C)C)NC(=O)[C@H](CC(C)C)NC(=O)OCc1ccccc1` [MG132] (Cbz-Leu-Leu-Leu-aldehyde), at BCL10 [1], the “BCL10 degradation by BCL10-P4 with proteasome or autophagy inhibitor” value is “negligibly prevented BCL10 degradation”.

For “DRQIKIWFQNRRMKWKKRTSSRKRAGKLLDYLQE [BCL10-P4]”, the 50% growth inhibitory concentration (GI50) is 10.3 ± 2.29 µM in the series on Jurkat cells; 3 to 6 µM in series [3] (text summary of Figure 2A-B, read-out: GI50 in the HBL1 and TMD8 cells); < 10 µM in the series on DLBCL cell lines (only exception U2932, read-out: GI50 values on most ABC-DLBCL cell lines); 4.2 ± 1 µM with HBL1 cells [4] (72 h, Figure 2B, mean ± SD of three independent experiments, read-out: GI50 HBL1); 4.7 ± 1.8 µM in the series on TMD8 cells (72 h, Figure 2B, mean ± SD of three independent experiments, read-out: GI50 TMD8). Moreover, the “growth inhibition effect on 293T” value in the series on 293T (setting [8]) is given as “neither BCL10-P2 nor BCL10-P4 displayed a growth inhibition effect”. The “growth inhibition effect on BPH-1” value with BPH-1 (setting [8]) is “neither BCL10-P2 nor BCL10-P4 displayed a growth inhibition effect”. Moreover, in series [2] (5 μM biotinylated BCL10-P4, 1-24 h, cell lysate blotted with streptavidin), the “cellular uptake (entry into cells)” value is on record as “comparable efficiency”. The “time of disappearance from cells” value in [2] (setting [9]) is on record as “approximately 24 h”. For the same compound, in [2] (setting [9]), the “time of peak intracellular level” value was in the range of 1 to 2 h. Further, the “intracellular level after the first 4 h (intracellular stability)” value in the series on HBL1 cells [5] is “decreased rapidly thereafter”. The “uptake by HBL1 cells and level within the first 4 h” value with HBL1 cells [5] is on record as “similarly taken up”.

DRQIKIWFQNRRMKWKKEKIIAERHF [BCL10-P1] came in with a GI50 in the series on HBL1 cells [4] (72 h) of 53.9 ± 10.3 µM.

On to “DRQIKIWFQNRRMKWKKKGLDTLVESIRREKTQ [BCL10-P5]”, for which the figures for the GI50 with HBL1 cells [4] (72 h) and in the series on TMD8 cells (72 h) were 66.5 ± 9.2 µM and 49 ± 33.9 µM, respectively.

As for `CC[C@@H](C)[C@@H](NC(=O)[C@@H](CC(C)C)NC(=O)[C@@H](CO)NC(=O)[C@H](N)CCCNC(=N)N)C(=O)N[C@H](CCCCN)C(=O)N[C@H](CCCCN)C(=O)N[C@H](C)C(=O)N[C@H](CCCNC(=N)N)C(=O)N[C@H](CC(C)C)C(=O)N[C@H](Cc1c[nH]cn1)C(=O)N[C@H](CC(=O)O)C(=O)N[C@H](Cc1ccccc1)C(=O)N[C@H](Cc1c[nH]cn1)C(=O)N[C@H](CCCNC(=N)N)C(=O)N[C@H](CCCCN)C(=O)N[C@H](CCCCN)C(=O)N[C@H](Cc1c[nH]c2ccccc12)C(=O)N[C@H](CCCCN)C(=O)N[C@H](CCSC)C(=O)N[C@H](CCCNC(=N)N)C(=O)N[C@H](CCCNC(=N)N)C(=O)N[C@H](CC(N)=O)C(=O)N[C@H](CCC(N)=O)C(=O)N[C@H](Cc1ccccc1)C(=O)N[C@H](Cc1c[nH]c2ccccc12)C(=O)N[C@@H](C(=O)N[C@H](CCCCN)C(=O)N[C@@H](C(=O)N[C@H](CCC(N)=O)C(=O)N[C@H](CCCNC(=N)N)C(=O)N[C@H](CC(=O)O)C(=O)O)[C@H](C)CC)[C@H](C)CC` [DRI-BCL10-P2] (H-[dR][dS][dL][dI][dK][dK][dA][dR][dL][dH][dD][dF][dH][dR][dK][dK][dW][dK][dM][dR][dR][dN][dQ][dF][dW][dI][dK][dI][dQ][dR][dD]-OH; N-terminus and C-terminus assumed), the “BCL10 filament formation (EM)” value at BCL10 [6] is “inhibited Bc10 filament formation in vitro”. Besides, the GI50 with HBL1 cells [4] was 7.64 ± 3.5 µM; in the series with TMD8 cells, 13.6 ± 2.3 µM.

In the case of `C=CC(=O)N1CCC[C@@H](n2nc(-c3ccc(Oc4ccccc4)cc3)c3c(N)ncnc32)C1` [ibrutinib], the “expression of NF-κB target genes (GSEA)” value in series [7] was “comparable to the effect of ibrutinib treatment”.

On to `CCN(CC)CCCC(C)Nc1ccnc2cc(Cl)ccc12` (centres unmarked) [CHL, chloroquine], for which, on BCL10 [1], the “BCL10 degradation by BCL10-P4 with proteasome or autophagy inhibitor” value was “prevented BCL10 degradation by BCL10-P4”.

For “DRQIKIWFQNRRMKWKKRHFDHLRAKKILSR [BCL10-P2]”, the “growth inhibition effect on 293T” value with 293T is “neither BCL10-P2 nor BCL10-P4 displayed a growth inhibition effect”. Moreover, the “growth inhibition effect on BPH-1” value in the series on BPH-1 is given as “neither BCL10-P2 nor BCL10-P4 displayed a growth inhibition effect”. The GI50 was 5.39 ± 0.2 µM in the series with KARPAS422; 5.51 ± 0.9 µM in the series on OCI-LY3; 3 to 6 µM in [3]; 16 ± 12.3 µM in the series on RCK8; < 10 µM with DLBCL cell lines; 5.1 ± 0.8 µM in the series with HBL1 cells [4] (72 h). The figures for the GI50 in the series on SUDHL4, with SUDHL6 and with TMD8 cells (72 h) were 2.56 ± 0.23 µM, 5.42 ± 3.09 µM and 3.35 ± 1.1 µM, respectively.
